Test results reported in patent publication US20230218631A1 (priority 2020, published 2023).

Tested on: wild-type mice
Experiment: Dependence (CIE)-induced and forced swim stress+dependence escalated ethanol drinking under systemic UNC0642
Type: in vivo
Conditions: chronic 4 mg/kg UNC0642 for 15 days
Procedure: Systemic G9A inhibitor administration and dependence-potentiated and stress+dependence-potentiated drinking. […] Mice were then divided into 4 even groups. Mice were exposed to Air/No stress, Air/FSS, CIE/No Stress, or CIE/stress in a 2×2 design to assess the effects of UNC0642 on dependence drinking alone and dependence+stress. Chronic injections of either vehicle or 4 mg/kg UNC0642 were started during the “test 4” phase in FIG. 6A and continued for 15 days. Ethanol consumed was recorded daily.
Since systemic delivery of UNC0642 blocked stress-regulated ethanol drinking in mice, we tested whether systemic delivery of UNC0642 could block dependence-induced escalation of ethanol drinking also. […] Mice were then divided into 4 evenly matched groups. Mice were exposed to Air/No stress, Air/FSS, CIE/No Stress, or CIE/stress to assess the effects of UNC0642 on ethanol drinking influenced by alcohol dependence alone or stress+dependence. Chronic injections of either vehicle or 4 mg/kg UNC0642 were started during the “test 4” phase illustrated in FIG. 6A and continued for 15 days.

COc1cc2c(NC3CCN(C(C)C)CC3)nc(N3CCC(F)(F)CC3)nc2cc1OCCCN1CCCC1 [UNC0642, 2-(4,4-Difluoropiperidin-1-yl)-6-methoxy-N-[1-(propan-2-yl)piperidin-4-yl]-7-[3-(pyrrolidin-1-yl)propoxy]quinazolin-4-amine]
dependence-induced ethanol drinking during test 5 week (CIE vs Air, no stress, FIG. 6B left panel): significant reduction
stress+dependence ethanol drinking, test 5 (forced swim stress plus CIE, FIG. 6B right panel): also suppressed
